Experimental data reported in patent US9926292B2, “Pyridinyl derivatives, pharmaceutical compositions and uses thereof” (Boehringer Ingelheim International GmbH, priority 2016, dated 2018).

Tests used:
[1] = tested on: pigs; settings: aminoguanidine 100 mg/kg and gavage of histamine 2 mg/kg; cited from earlier work
[2] = target: T1, AOC1 (Homo sapiens, UniProt P19801); test: AOC1 biochemical assay (Amplex Red); settings: Table 1; read-out: AOC1 IC50
T1 construct: purchased R&D Systems 8297-AO-010
T1 sequence (P19801 20-751): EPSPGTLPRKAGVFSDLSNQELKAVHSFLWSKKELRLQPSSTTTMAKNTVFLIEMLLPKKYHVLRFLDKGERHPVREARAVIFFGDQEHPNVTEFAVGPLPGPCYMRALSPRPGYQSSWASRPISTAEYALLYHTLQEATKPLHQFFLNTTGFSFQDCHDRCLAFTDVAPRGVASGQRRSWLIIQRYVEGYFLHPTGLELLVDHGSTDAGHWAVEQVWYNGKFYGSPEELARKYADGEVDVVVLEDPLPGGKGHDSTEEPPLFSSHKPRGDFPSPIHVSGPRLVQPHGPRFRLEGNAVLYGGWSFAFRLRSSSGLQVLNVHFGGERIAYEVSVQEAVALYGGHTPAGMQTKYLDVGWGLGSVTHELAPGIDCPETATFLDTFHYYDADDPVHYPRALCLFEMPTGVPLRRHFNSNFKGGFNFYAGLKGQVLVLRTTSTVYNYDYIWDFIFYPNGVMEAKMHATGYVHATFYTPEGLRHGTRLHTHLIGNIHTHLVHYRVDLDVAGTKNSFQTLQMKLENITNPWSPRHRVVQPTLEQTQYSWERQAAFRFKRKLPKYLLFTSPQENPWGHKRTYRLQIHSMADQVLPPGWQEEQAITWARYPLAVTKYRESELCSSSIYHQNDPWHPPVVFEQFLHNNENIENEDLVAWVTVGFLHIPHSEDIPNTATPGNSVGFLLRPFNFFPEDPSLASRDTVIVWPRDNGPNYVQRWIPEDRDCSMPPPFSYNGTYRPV
Excerpt: The Amplex® Red Assay (available from Thermo Fisher Scientific) provides a sensitive method for the detection of H2O2 generated during enzymatic reactions like the amine oxidation catalyzed by AOC1.

[3] = target: T2, AOC3 (Homo sapiens, UniProt Q16853); test: AOC3 biochemical assay (MAO-Glo); settings: Table 1; read-out: AOC3 IC50
T2 construct: expressed in transfected cells; host or cells: CHO cells
T2 sequence (Q16853 1-763): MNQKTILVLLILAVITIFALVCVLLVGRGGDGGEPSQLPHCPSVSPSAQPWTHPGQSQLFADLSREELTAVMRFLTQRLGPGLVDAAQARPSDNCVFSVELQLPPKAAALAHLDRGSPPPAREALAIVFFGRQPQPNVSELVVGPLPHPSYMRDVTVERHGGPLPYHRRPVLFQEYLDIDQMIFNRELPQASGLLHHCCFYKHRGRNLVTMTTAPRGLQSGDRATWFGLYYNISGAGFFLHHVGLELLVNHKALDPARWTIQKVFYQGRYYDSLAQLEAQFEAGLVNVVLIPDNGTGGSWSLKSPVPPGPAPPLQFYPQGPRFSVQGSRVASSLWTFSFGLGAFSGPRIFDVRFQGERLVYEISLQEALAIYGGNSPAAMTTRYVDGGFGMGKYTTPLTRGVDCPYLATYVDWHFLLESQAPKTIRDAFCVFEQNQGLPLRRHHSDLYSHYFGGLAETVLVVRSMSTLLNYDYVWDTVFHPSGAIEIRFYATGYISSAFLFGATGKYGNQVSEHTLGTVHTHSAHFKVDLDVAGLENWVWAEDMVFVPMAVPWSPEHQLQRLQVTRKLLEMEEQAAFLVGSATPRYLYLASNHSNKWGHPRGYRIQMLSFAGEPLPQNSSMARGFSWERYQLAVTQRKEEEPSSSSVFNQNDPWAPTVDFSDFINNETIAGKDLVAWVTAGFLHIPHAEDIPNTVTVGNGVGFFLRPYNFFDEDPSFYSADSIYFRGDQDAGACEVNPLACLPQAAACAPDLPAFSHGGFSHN
Description: As substrate a derivate of the beetle luciferin ((4S)-4,5-dihydro-2-(6-hydroxybenzothiazolyl)-4-thiazole-carboxylic acid) is used, which is oxidized at a primary amine moiety. After a spontaneous elimination and a catalyzed esterase reaction, the turnover of the luciferine by the luciferase is recorded as a signal of AOC3 activity.
Recombinant CHO cells, overexpressing the human (1500 cells/well), mouse (1000 cells/well) or rat (500 cells/well) AOC3 enzyme are diluted in reaction buffer and added in a volume of 15 μL to the wells. After incubation for 20 minutes at 37° C., 2 μL of MAO substrate (dissolved in DMSO at 16 mM, adjusted to assay concentration in reaction buffer to a final assay concentration of 20 μM) is added and further incubated for 60 minutes at 37° C. The turnover of the substrate is determined by the addition of 20 μL of the detection-mix which was generated by the addition of reconstitution buffer with esterase (PROMEGA, #V1402) to the luciferine detection reagent (PROMEGA, #V1402).

Compound	death [1]	IC50 [2] [nM]	melting point [°C]	IC50 [3] [nM]
N=C(N)NN [aminoguanidine]	3 out of 15	–	–	–
N=C(N)NC(=O)OCc1cccc(-c2cnc(OCc3ccon3)nc2)n1 [Example 24, [6-[2-(isoxazol-3-ylmethoxy)pyrimidin-5-yl]-2-pyridyl]methyl N-carbamimidoylcarbamate]	–	1590	183	4
N=C(N)NC(=O)OCc1cccc(-c2cnc(OCCCC(F)(F)F)nc2)n1 [Example 36, [6-[2-(4,4,4-trifluorobutoxy)pyrimidin-5-yl]-2-pyridyl]methyl N-carbamimidoylcarbamate]	–	1150	194 to 197	5
